Measurements published in patent US7300946B2, “N-(substituted arylmethyl)-4-(disubstituted methyl) piperidines and pyridines” (Bayer CropScience AG, priority 2002, dated 2007).

System: tobacco budworm (Heliothis virescens [Fabricius])
Assay: surface-treated diet test against the tobacco budworm
Type: in vivo
Details: tobacco budworm second instar larvae, 0.25 millimoles of candidate insecticide on the surface of the diet, five-day exposure; for Percent Mortality: compared to total number of insects infested; for Percent Growth Inhibition: inhibition of insect weight relative to untreated controls
Summary of the method: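 Wheat germ artificial diet surface-treated with 40 µL of 50 mM DMSO stock diluted 1:7 in 1:1 water/acetone (0.25 millimolar on diet), or sub-multiples for rate tests. One second-instar larva per well, 25° C, 60% RH, 5 days; percent weight inhibition vs DMSO controls and percent mortality.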

Row | SMILES | Percent Mortality (surface-treated diet) [%] | Percent Growth Inhibition (surface-treated diet) [%] | Percent Mortality [%] | Percent Growth Inhibition [%]
1 | CCn1nnc(-c2ccc(CN3CCC(C(OC(=O)Nc4ccc(C(C)C)cc4)c4ccc(OC(F)(F)F)cc4)CC3)cc2)n1 (stereo not shown) [Compound 286] | 50 | 94 | – | –
2 | CCON=Cc1ccc(C[N+]2([O-])CCC(C(OC(=O)Nc3cc(F)cc(F)c3)c3ccc(C(F)(F)F)cc3)CC2)cc1 (stereo not shown) [Compound 743] | – | – | 100 | 100
3 | CCON=Cc1ccc(CN2CCC(C(OC(=O)Nc3ccc(Cl)c(Cl)c3)c3ccc(C(F)(F)F)cc3)CC2)cc1 (stereo not shown) [Compound 189] | 100 | 100 | – | –
4 | CCn1nnc(-c2ccc(CN3CCC(C(OC(=O)Nc4c(Cl)cccc4Cl)c4ccc(C(F)(F)F)cc4)CC3)cc2)n1 (stereo not shown) [Compound 282] | 0 | 95 | – | –
5 | Cn1nnc(-c2ccc(CN3CCC(C(NC(=O)Nc4ccc(C(F)(F)F)cc4)c4ccc(OC(F)(F)F)cc4)CC3)cc2)n1 (stereo not shown) [Compound 344] | 100 | 100 | – | –
6 | O=C(Nc1ccc(Cl)cc1)OC(c1ccc(Cl)c(Cl)c1)C1CCN(Cc2ccc(Oc3ncccn3)cc2)CC1 (stereo not shown) [Compound 721] | – | – | 100 | 100
7 | Cn1nnc(-c2ccc(CN3CCC(C(NC(=O)c4ccccc4)c4ccc(OC(F)(F)F)cc4)CC3)cc2)n1 (stereo not shown) [Compound 321] | 17 | 95 | – | –
8 | O=C(NC1CCCCC1)OC(c1ccc(C(F)(F)F)cc1)C1CCN(Cc2ccc(Oc3ccccn3)cc2)CC1 (stereo not shown) [Compound 782] | – | – | 100 | 100
9 | Cn1nnc(-c2ccc(CN3CCC(C(NC(=O)Oc4ccc(Br)cc4)c4ccc(OC(F)(F)F)cc4)CC3)cc2)n1 (stereo not shown) [Compound 350] | 100 | 100 | – | –
10 | FC(F)(F)c1ccc(C(Oc2cc(C(F)(F)F)ccn2)C2CCN(Cc3ccc(Oc4ccc(Cl)nn4)cc3)CC2)cc1 (stereo not shown) [Compound 441] | 100 | 100 | – | –
11 | CCCOc1ccc(CN2CCC(=C(c3ccc(OC(F)(F)F)cc3)c3ccc(OC(F)(F)F)cc3)CC2)cc1 [Compound 48] | 100 | 100 | – | –
12 | [O-][N+]1(Cc2ccc(Oc3ncccn3)cc2)CCC(=C(c2ccc(C(F)(F)F)cc2)c2ccc(C(F)(F)F)cc2)CC1 (stereo not shown) [Compound 854] | – | – | 100 | 100
13 | CCCNC(=O)OC(c1ccc(C(F)(F)F)cc1)C1CCN(Cc2ccc(Oc3ccccn3)cc2)CC1 (stereo not shown) [Compound 775] | – | – | 33 | 100
14 | CC(C)OC(=O)Nc1ccc(CN2CCC(=C(c3ccccc3)c3ccccc3)CC2)cc1 [Compound 793] | – | – | 0 | 76
15 | Cn1nnc(-c2ccc(CN3CCC(C(NC(=O)Nc4ccccc4Cl)c4ccc(OC(F)(F)F)cc4)CC3)cc2)n1 (stereo not shown) [Compound 334] | 100 | 100 | – | –
16 | CNC(=O)Oc1ccc(CN2CCC(C(OC(=O)Nc3ccccc3)c3ccc(C(F)(F)F)cc3)CC2)cc1 (stereo not shown) [Compound 521] | 100 | 100 | – | –
17 | CCCS(=O)(=O)NC(c1ccc(OC(F)(F)F)cc1)C1CCN(Cc2ccc(-c3nnn(C)n3)cc2)CC1 (stereo not shown) [Compound 433, [(1-{[4-(2-methyl(1,2,3,4-tetraazol-5-yl))phenyl]methyl}(4-piperidyl))[4-(trifluoromethoxy)phenyl]methyl]propylsulfonylamide] | 100 | 100 | – | –
18 | CCn1nnc(-c2ccc(CN3CCC(C(OC(=O)Nc4ccc(C(F)(F)F)cc4)c4cc(F)cc(F)c4)CC3)cc2)n1 (stereo not shown) [Compound 594] | 100 | 100 | – | –
19 | CC(=O)Nc1ccc(CN2CCC(C(OC(=O)Nc3ccc(Cl)cc3)c3ccc(C(F)(F)F)cc3)CC2)cc1 (stereo not shown) [Compound 494] | 0 | 77 | – | –
20 | Fc1cc(F)cc(C(=C2CCN(Cc3ccc(Oc4ncccn4)cc3)CC2)c2ccc(C(F)(F)F)cc2)c1 [Compound 820] | – | – | 50 | 92
21 | O=C(NC1CCCC1)OC(c1ccc(C(F)(F)F)cc1)C1CCN(Cc2ccc(Oc3ccccn3)cc2)CC1 (stereo not shown) [Compound 781] | – | – | 100 | 100
22 | C#CCON=Cc1ccc(CN2CCC(C(OC(=O)Nc3ccc(Cl)cc3)c3ccc(C(F)(F)F)cc3)CC2)cc1 (stereo not shown) [Compound 539] | 100 | 100 | – | –
23 | CCON=Cc1ccc(CN2CCC(C(OC(=O)Nc3ccc(OC(F)(F)F)cc3)c3ccc(C(F)(F)F)cc3)CC2)cc1 (stereo not shown) [Compound 211] | 100 | 100 | – | –
24 | CC(C)OC(=O)c1ccc(CN2CCC(C(OC(=O)Nc3cc(F)cc(F)c3)c3ccc(C(F)(F)F)cc3)CC2)cc1 (stereo not shown) [Compound 493] | 100 | 100 | – | –

Row | SMILES | Percent Mortality (surface-treated diet) [%] | Percent Growth Inhibition (surface-treated diet) [%] | Percent Mortality [%] | Percent Growth Inhibition [%]
25 | O=C(Nc1ccc(F)cc1F)OC(c1ccc(C(F)(F)F)cc1)C1CC[N+]([O-])(Cc2ccc(Oc3ccccn3)cc2)CC1 (stereo not shown) [Compound 753] | – | – | 100 | 100
26 | CCON=Cc1ccc(CN2CCC(C(OC(=O)Nc3ccc(Cl)cc3C(F)(F)F)c3ccc(C(F)(F)F)cc3)CC2)cc1 (stereo not shown) [Compound 206] | 100 | 100 | – | –
27 | CCCOC(=O)Nc1ccc(CN2CCC(=C(c3ccc(C(F)(F)F)cc3)c3ccc(C(F)(F)F)cc3)CC2)cc1 [Compound 57] | 100 | 100 | – | –
28 | Cn1nnc(-c2ccc(C[N+]3([O-])CCC(=C(c4ccc(C(F)(F)F)cc4)c4ccc(C(F)(F)F)cc4)CC3)cc2)n1 (stereo not shown) [Compound 112] | 100 | 100 | – | –
29 | O=C(Nc1ccncc1)OC(c1ccc(C(F)(F)F)cc1)C1CCN(Cc2ccc(Oc3ccccn3)cc2)CC1 (stereo not shown) [Compound 450] | 0 | 62 | – | –
30 | FC(F)(F)c1ccc(C(=C2CCN(Cc3ccc(-c4ccccn4)cc3)CC2)c2ccc(C(F)(F)F)cc2)cc1 [Compound 807] | – | – | 100 | 100
31 | O=C(Nc1ccc(Cl)cc1)OC(c1ccc(Cl)cc1)C1CCN(Cc2ccc(Oc3ncccn3)cc2)CC1 (stereo not shown) [Compound 712] | – | – | 100 | 100
32 | CC(C)OC(=O)Nc1ccc(CN2CCC(C(OC(=O)Nc3cc(F)cc(F)c3)c3ccc(OC(F)(F)F)cc3)CC2)cc1 (stereo not shown) [Compound 515] | 100 | 100 | – | –
33 | O=C(Nc1ccc(C(F)(F)F)cc1)OC(c1ccc(Cl)c(Cl)c1)C1CCN(Cc2ccc(Oc3ncccn3)cc2)CC1 (stereo not shown) [Compound 725] | – | – | 100 | 100
34 | Cn1nnc(-c2ccc(CN3CCC(C(NCc4ccc([N+](=O)[O-])cc4)c4ccc(OC(F)(F)F)cc4)CC3)cc2)n1 (stereo not shown) [Compound 320] | 100 | 100 | – | –
35 | CCON=Cc1ccc(C[N+]2([O-])CCC(C(OC(=O)Nc3cccc(F)c3)c3ccc(C(F)(F)F)cc3)CC2)cc1 (stereo not shown) [Compound 742] | – | – | 100 | 100
36 | O=C(Nc1ccc(Cl)cc1)OC(c1ccc(C(F)(F)F)cc1)C1CC[N+]([O-])(Cc2ccc(Oc3ncccn3)cc2)CC1 (stereo not shown) [Compound 762] | – | – | 100 | 100
37 | Cn1nnc(-c2ccc(CN3CCC(C(NC(=O)c4ccccc4F)c4ccc(OC(F)(F)F)cc4)CC3)cc2)n1 (stereo not shown) [Compound 326] | 0 | 93 | – | –
38 | [O-][N+]1(Cc2ccc(Oc3ccccn3)cc2)CCC(C(Oc2ccc(C(F)(F)F)cn2)c2ccc(C(F)(F)F)cc2)CC1 (stereo not shown) [Compound 442] | 100 | 100 | – | –
39 | O=C(Nc1cccc(F)c1)OC(c1ccc(OC(F)(F)F)cc1)C1CCN(Cc2ccc(Oc3ncccn3)cc2)CC1 (stereo not shown) [Compound 734] | – | – | 100 | 100
40 | [O-][N+]1(Cc2ccc(Oc3ncccn3)cc2)CCC(=C(c2ccc(C(F)(F)F)cc2)c2cccc(C(F)(F)F)c2)CC1 (stereo not shown) [Compound 853] | – | – | 100 | 100
41 | Fc1cccc(C(=C2CCN(Cc3ccc(Oc4ncccn4)cc3)CC2)c2ccc(C(F)(F)F)cc2)c1 [Compound 817] | – | – | 100 | 100
42 | CC(C)OC(=O)c1ccc(CN2CCC(=C(c3ccc(C(F)(F)F)cc3)c3ccc(C(F)(F)F)cc3)CC2)cc1 [Compound 51] | 0 | 26 | – | –
43 | Cn1nnc(-c2ccc(CN3CCC(C(NC(=O)Oc4ccccc4Cl)c4ccc(OC(F)(F)F)cc4)CC3)cc2)n1 (stereo not shown) [Compound 347] | 83 | 100 | – | –
44 | COc1ccc(NC(=O)NC(c2ccc(OC(F)(F)F)cc2)C2CCN(Cc3ccc(-c4nnn(C)n4)cc3)CC2)cc1 (stereo not shown) [Compound 343] | 100 | 100 | – | –
45 | O=C(Nc1c(F)c(F)c(F)c(F)c1F)OC(c1ccc(C(F)(F)F)cc1)C1CCN(Cc2ccc(Oc3ccccn3)cc2)CC1 (stereo not shown) [Compound 243] | 100 | 100 | – | –
46 | COc1cc(NC(=O)OC(c2ccc(Cl)cc2)C2CCN(Cc3ccc(Oc4ccccn4)cc3)CC2)cc(OC)c1 (stereo not shown) [Compound 633] | 50 | 100 | – | –
47 | [O-][N+]1(Cc2ccc(Oc3ncccn3)cc2)CCC(=C(c2ccc(C(F)(F)F)cc2)c2ccc(Cl)c(Cl)c2)CC1 (stereo not shown) [Compound 850] | – | – | 100 | 100
